Test results reported in US5776902A, “Boronophenyl analogs of phospholyrosines” (Trustees of Tufts University, priority 1995, dated 1998).

How the values were obtained:
[1] = target: T1, lck-SH2 (Homo sapiens, UniProt P06239); assay: IDEXX lck-SH2 binding assay (GST-SH2 beads, FITC-labeled peptide EPQYEEIPIYL); settings: inhibition of binding of FITC-labeled peptide to GST-lck SH2 beads (FIG. 7)
T1 construct: made in house; host or cells: E. coli
Procedure: In order to assess the inhibitory activity of the present peptidomimetics, the ability of the subject compounds to inhibit the interaction between a specific peptide and an SH2 domain was determined. Various SH2 domains were subcloned in frame with the glutathione-S-transferase affinity tag of the pGEX vector system (Pharmacia catalog no. PGEX-4T-3). The resulting pGEX-E2 construct encoded a glutathione-S-transferase (GST)/SH2 fusion protein (Smith et al. (1988) Gene 67:31-40). The pGEX construct was introduced into E. coli by transfromation, and the transformants grown in liquid media (LB) in the presence of IPTG. Purification of GST/E2 fusion protein was by standard protocols (Current Protocols in Molecular Biology, eds. Ausubel et al. (NY:John Wiley & Sons, 1991); Pharmacia instruction booklet (for catalog no. 27-4570)) using a glutathione-sepharose column (Pharmacia catalog no. 27-4570). Briefly, the cells were pelleted and resuspended in buffer A (50 mM TRIS (pH7.5), 2 mM EDTA, 250 mM NaCl, 5% glycerol (V/V), 1% Tween (V/V), 1% Triton X 100 (V/V)), to which 2 mM PMSF and 15 mM 2-mercaptoethanol were added. […]

[2] = target: T2, SH2 mediated interaction of middle T and fyn (Homo sapiens, UniProt P06241); assay: Effect on Middle T/fyn interaction (GST-Fyn pull-down of 32P-labeled middle T, autoradiography); assay type: binding; settings: GST-Fyn on glutathione-Sepharose beads, 32P-labeled polyoma Middle T, SDS gel autoradiography (FIG. 6); inhibitor 3.95×10^-4 M to 3.95×10^-5 M
T2 construct: host or cells: middle T: Sf9 cells (baculovirus co-expression with src)
Procedure: Approximately 10 μg of a GST-Fyn fusion protein bound to 10 μl of glutathione-Sepharose beads were incubated with 90 μl of buffer (TEB, pH 9.0) and 10 μl of DMSO or DMSO containing an isomer (#1 or #2) of compound 36 (lanes 2 and 3 equal 3.95×10^-4 M; lane 4 equals 1.32×10^-4 M; lane 5 equals 3.95×10^-5 M). Lane 1 contains no inhibitor. The lanes labeled "MT 315" (lanes 6 and 7) are reaction mixutures as above, but having 20 μg of peptide (middle T residues EEYMPMED) instead of the benzodiazepine 36. The label "pY" indicates the peptide was phosphorylated, while unphosphoryalated peptide is designated as "-". The reaction mixtures were incubated for 1 hour, then 100 μL ^32 P-labeled Middle T (polyoma), prepared from baculovirus co-expression of middle T and src in Sf9 cells, were added to each reaction and incubated for 1 hour more at 4° C. The sepharose was washed with twice with PBS, and once with distilled water, boiled in SDS dissociation buffer, and run on a 7.5% acrylamide SDS gel. Labeled MT was visualized on the gel by autoradiography, and the inhibition of MT/fyn interaction determined.

T1 sequence (P06239 127-224 limits assumed): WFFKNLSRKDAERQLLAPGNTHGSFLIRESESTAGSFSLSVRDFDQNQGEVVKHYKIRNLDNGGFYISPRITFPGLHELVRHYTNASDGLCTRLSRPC
T2 sequence (P06241 whole entry, species assumed): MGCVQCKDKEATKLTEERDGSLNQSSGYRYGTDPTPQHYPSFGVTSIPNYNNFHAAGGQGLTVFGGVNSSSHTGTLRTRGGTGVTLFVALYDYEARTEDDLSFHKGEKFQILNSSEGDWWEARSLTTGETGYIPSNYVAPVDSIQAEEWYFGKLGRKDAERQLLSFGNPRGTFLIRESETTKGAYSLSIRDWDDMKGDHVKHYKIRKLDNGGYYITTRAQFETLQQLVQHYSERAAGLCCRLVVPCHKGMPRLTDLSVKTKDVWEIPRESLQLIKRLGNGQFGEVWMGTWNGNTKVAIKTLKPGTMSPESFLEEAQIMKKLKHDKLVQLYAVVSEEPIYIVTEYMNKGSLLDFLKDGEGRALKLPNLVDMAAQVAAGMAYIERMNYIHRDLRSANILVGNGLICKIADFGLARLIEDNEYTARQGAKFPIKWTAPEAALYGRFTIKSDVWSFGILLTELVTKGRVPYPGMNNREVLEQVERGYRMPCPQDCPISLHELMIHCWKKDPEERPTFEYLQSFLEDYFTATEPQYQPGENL

| Compound | IC50 [1] | inhibition of MT/fyn interaction [2] |
| --- | --- | --- |
| CC[C@H](C)[C@H](NC(=O)CN1C(=O)C(NC(=O)[C@H](Cc2ccc(OP(=O)(O)O)cc2)NC(=O)OCC2c3ccccc3-c3ccccc32)N=C(c2ccccc2)c2ccccc21)C(=O)OC (stereo partly drawn) [FMOC-derivative, 1,3-Dihydro-1-[(methoxy-L-isoleucyl)carbonylmethyl)-5-phenyl-3(R,S)-{[(N-fluorenylmethoxycarbonyl)phosphono-L-tyrosyl]amino}-2H-1,4-benzodiazepin-2-one] | 48.2 µM |  |
| CC[C@H](C)[C@H](NC(=O)CN1C(=O)C(NC(=O)[C@H](Cc2ccc(OP(=O)(O)O)cc2)NC(C)=O)N=C(c2ccccc2)c2ccccc21)C(=O)OC (stereo partly shown) [compound 36] | 271 µM | both isomers of 36 displayed inhibitory action |
| CC[C@H](C)[C@H](NC(=O)CN1C(=O)C(NC(=O)[C@H](Cc2ccc(OP(=O)(O)O)cc2)NC(C)=O)N=C(c2ccccc2)c2ccccc21)C(=O)OC (single isomer, unassigned; isomer #2) [isomer #2] |  | more potent inhibitor |
